Measured values as given in patent US10022392B2, “Compositions based on methyl cyclodextrins for the treatment and/or prevention of diseases by increasing the HDL cholesterol level” (ROQUETTE FRERES, priority 2013, dated 2018).

Legend:
[1] = test system: ABCG1; assay: Expression of the ABCG1 transporter (real-time PCR) in endothelial cells treated with cyclodextrins; type: cell-based, bovine; conditions: 1 mM cyclodextrin, 24 hours, ABAEs, compared with control, FIG. 4
Method: (§1) Cells: The endothelial cells were adult bovine aortic endothelial cells (ABAEs).
(§2) The cells were then cultured in this radioactive medium for 36 hours in order to allow them to incorporate the radioactive cholesterol. The medium was then removed and the cells were rinsed twice with warm DMEM containing 0.1% of bovine serum albumin (BSA). The cells were then cultured in DMEM/1 ng/ml bFGF containing 1 mM of each cyclodextrin for 24 hours (1.4 ml/well).
(§3) After 24 hours of treatment with each cyclodextrin, the cells were rinsed twice in cold PBS (8 g/l NaCl, 0.2 g/l KCl, 0.2 g/l KH2PO4, 2.87 g/l NA2HPO4 (12H2O), pH 7.4) and lyzed using 500 μl of RLT lysis buffer […]. Three wells were used and pooled for each condition. […] At the end of this purification step, the mRNA concentration was estimated by virtue of the absorbance values obtained at 260, 280 and 320 nm. […]
(§4) The amplification was carried out over the course of 40 cycles with a hybridization temperature of 60° C. using the Biorad CFX96 thermocycler. For each pair of primers, the amplification specificity was verified by producing melting curves and the efficiency was determined by producing dilution curves. The expression levels measured were then normalized on the expression levels of β-actin and cyclophillin B using the ΔΔCt method. […]

[2] = test system: ABCA1; assay: Expression of the ABCA1 transporter (real-time PCR) in endothelial cells treated with cyclodextrins; type: cell-based, bovine; conditions: 1 mM cyclodextrin, 24 hours, ABAEs, compared with control, FIG. 3
Method: as §1, §2, §3, §4

[3] = test system: adult bovine aortic endothelial cells (ABAEs); assay: Cholesterol efflux: 3H-cholesterol captured by the cyclodextrins from aortic endothelial cells; type: cell-based; conditions: 1 mM cyclodextrin, 2 hours, FIG. 2
Description: as §1
Cyclodextrins: the cyclodextrins used were the following: a non-methylated β-cyclodextrin, hereinafter denoted “β-CD”, a methyl-β-cyclodextrin having an MS of 0.2, hereinafter denoted “MβCD-0.2”, a methyl-β-cyclodextrin having an MS of 0.67 (KLEPTOSE® CRYSMEB, ROQUETTE FRERES), hereinafter denoted “MβCD-0.67”, a methyl-β-cyclodextrin having an MS of 1.8 (RAMEB®, CYCLOLAB), hereinafter denoted “MβCD-1.8”.
0.5 μCi/ml of 3H-cholesterol was incorporated into serum (10% horse serum/calf serum (HS/CS)) for 6 hours at 37° C. for the purpose of obtaining a culture medium enriched with radioactive cholesterol. After this incorporation, the culture medium was finalized by incorporation of DMEM (Dulbecco's Modified Eagle's medium) supplemented with 10% HS, 10% CS, 1 ng/ml bFGF (basic fibroblast growth factor), 2 mM glutamine and 50 μg/ml gentamicin. […]
Two hours after the beginning of the incubation in the presence of each cyclodextrin, 500 μl of medium were removed and the radioactive cholesterol captured by the cyclodextrin was assayed by means of a scintillation counter (Tri-carb 2100TR). The radioactivity was measured in disintegrations per minute (DPM). The capacity of each cyclodextrin to capture cellular cholesterol was then estimated by performing the following calculation: ((1.4 ml/0.5 ml)×DPM measured). […]

OC[C@H]1O[C@@H]2O[C@H]3[C@H](O)[C@@H](O)[C@@H](O[C@H]4[C@H](O)[C@@H](O)[C@@H](O[C@H]5[C@H](O)[C@@H](O)[C@@H](O[C@H]6[C@H](O)[C@@H](O)[C@@H](O[C@H]7[C@H](O)[C@@H](O)[C@@H](O[C@H]8[C@H](O)[C@@H](O)[C@@H](O[C@H]1[C@H](O)[C@H]2O)O[C@@H]8CO)O[C@@H]7CO)O[C@@H]6CO)O[C@@H]5CO)O[C@@H]4CO)O[C@@H]3CO [βCD, β-cyclodextrin]
ABCG1 receptor expression (mRNA) [1]: strongly decreasing | ABCA1 receptor expression (mRNA) [2]: strongly decreasing | Cholesterol efflux (radioactive cholesterol captured by the cyclodextrin) [3]: rapid and considerable efflux
